According to patent publication US20260083721A1, “7-CYANO-8-HYDROXYQUINOLINE DERIVATIVE, PREPARATION METHOD THEREFOR AND MEDICAL USE THEREOF” (Jiangsu Yahong Meditech Co., Ltd., priority 2022, published 2026):
Values after ≈ are worked out from the molar mass of the structure shown.

What was measured:
Type in all cases: cell-based
[1] = tested on: carbapenem-resistant Acinetobacter baumannii 18-W13-081; assay: MIC by broth microdilution, carbapenem-resistant A. baumannii 18-W13-081; details: carbapenem-resistant clinical isolate, CAMHB, 35±2° C., 20 hours, drug concentration range 128 mg/L to 0.06 mg/L, read-out: inhibitory MIC value, Acinetobacter baumannii 18-W13-081
Excerpt: (§1) The test bacteria were 2 strains of carbapenem-resistant Escherichia coli (18-W09-093 and 18-W18-070), 2 strains of carbapenem-resistant Acinetobacter baumannii (18-W15-036 and 18-W13-081), 1 strain of methicillin-resistant Staphylococcus aureus (19-W03-012) and 1 strain of methicillin-sensitive Staphylococcus aureus (19-W01-012), isolated clinically, with duplicate strains isolated from the same patient being excluded. Besides, there were 3 quality control strains, namely Escherichia co/i ATCC 25922, Acinetobacter baumannii ATCC 19606, and Staphylococcus aureus ATCC 29213. The above strains were all provided by Shanghai GenoMatrix Medical Laboratory Co., Ltd.
(§2) The MIC of the compound of the present invention on clinically isolated strains was assayed by the broth microdilution method according to the relevant documents from the Clinical and Laboratory Standards Institute (CLSI) of United States. • 3.1 Preparation of antimicrobial drugs: the compounds of the present invention were all dissolved with DMSO. The drug concentration ranged from 128 mg/L to 0.06 mg/L. • 3.2 Culture medium: cation adjusted Mueller-Hinton broth (CAMHB) was used. • 3.3 Inoculation amount of bacteria: the isolated pure culture of test bacteria cultured overnight was adjusted to 0.5 McFarland turbidity by direct colony suspension and diluted 100 folds, and the final inoculation amount was 10^5 CFU/mL. • 3.4 Culture conditions: the bacteria were cultured in air at 35±2° C. for 20 hours.
(§3) The results of the drug sensitivity test were interpretated according to the standards of CLSI M100-ED29:2019.
(§4) The statistical analysis of the results of the drug sensitivity test was done by using WHONET version 5.6 software.

[2] = tested on: carbapenem-resistant Escherichia coli 18-W09-093; assay: MIC by broth microdilution, carbapenem-resistant E. coli 18-W09-093; details: carbapenem-resistant clinical isolate, CAMHB, 35±2° C., 20 hours, drug concentration range 128 mg/L to 0.06 mg/L, read-out: inhibitory MIC value, Escherichia coli 18-W09-093
Excerpt: as §1, §2, §3, §4

[3] = tested on: carbapenem-resistant Escherichia coli 18-W18-070; assay: MIC by broth microdilution, carbapenem-resistant E. coli 18-W18-070; details: carbapenem-resistant clinical isolate, CAMHB, 35±2° C., 20 hours, drug concentration range 128 mg/L to 0.06 mg/L, read-out: inhibitory MIC value, Escherichia coli 18-W18-070
Excerpt: as §1, §2, §3, §4

[4] = tested on: methicillin-resistant Staphylococcus aureus 19-W03-012; assay: MIC by broth microdilution, methicillin-resistant S. aureus 19-W03-012; details: methicillin-resistant clinical isolate, CAMHB, 35±2° C., 20 hours, drug concentration range 128 mg/L to 0.06 mg/L, read-out: inhibitory MIC value, Staphylococcus aureus 19-W03-012
Excerpt: as §1, §2, §3, §4

[5] = tested on: methicillin-sensitive Staphylococcus aureus 19-W01-012; assay: MIC by broth microdilution, methicillin-sensitive S. aureus 19-W01-012; details: methicillin-sensitive clinical isolate, CAMHB, 35±2° C., 20 hours, drug concentration range 128 mg/L to 0.06 mg/L, read-out: inhibitory MIC value, Staphylococcus aureus 19-W01-012
Excerpt: as §1, §2, §3, §4

[6] = tested on: Escherichia coli ATCC25922; assay: MIC by broth microdilution, E. coli ATCC 25922; details: quality control strain, CAMHB, 35±2° C., 20 hours, drug concentration range 128 mg/L to 0.06 mg/L, read-out: inhibitory MIC value, Escherichia coli ATCC25922
Excerpt: as §1, §2, §3, §4

[7] = tested on: carbapenem-resistant Acinetobacter baumannii 18-W15-036; assay: MIC by broth microdilution, carbapenem-resistant A. baumannii 18-W15-036; details: carbapenem-resistant clinical isolate, CAMHB, 35±2° C., 20 hours, drug concentration range 128 mg/L to 0.06 mg/L, read-out: inhibitory MIC value, Acinetobacter baumannii 18-W15-036
Excerpt: as §1, §2, §3, §4

[8] = tested on: Staphylococcus aureus ATCC29213; assay: MIC by broth microdilution, S. aureus ATCC 29213; details: quality control strain, CAMHB, 35±2° C., 20 hours, drug concentration range 128 mg/L to 0.06 mg/L, read-out: inhibitory MIC value, Staphylococcus aureus ATCC29213
Excerpt: as §1, §2, §3, §4

[9] = tested on: Acinetobacter baumannii ATCC19606; assay: MIC by broth microdilution, A. baumannii ATCC 19606; details: quality control strain, CAMHB, 35±2° C., 20 hours, drug concentration range 128 mg/L to 0.06 mg/L, read-out: inhibitory MIC value, Acinetobacter baumannii ATCC19606
Excerpt: as §1, §2, §3, §4

Row | Structure (SMILES) | MIC [1] [µg/mL] | MIC [2] [µg/mL] | MIC [3] [µg/mL] | MIC [4] [µg/mL] | MIC [5] [µg/mL] | MIC [6] [µg/mL] | MIC [7] [µg/mL] | MIC [8] [µg/mL] | MIC [9] [µg/mL]
1 | Cc1ccnc2c(O)c(C#N)cc(Cl)c12 [Compound 5, 4-methyl-5-chloro-7-cyano-8-hydroxyquinoline] | 2 (≈ 9.15 µM) | 32 (≈ 146 µM) | 16 (≈ 73.2 µM) | 2 (≈ 9.15 µM) | 4 (≈ 18.3 µM) | 8 (≈ 36.6 µM) | 8 (≈ 36.6 µM) | 4 (≈ 18.3 µM) | 4 (≈ 18.3 µM)
2 | N#Cc1cc(C(=O)O)c2cccnc2c1O [Compound 8, 7-cyano-8-hydroxyquinoline-5-carboxylic acid] | > 64 | > 64 | > 64 | > 64 | > 64 | > 64 | > 64 | > 64 | > 64
3 | Cc1cc(C#N)c(O)c2ncccc12 [Compound A, reference compound] | 4 (≈ 21.7 µM) | 8 (≈ 43.4 µM) | 16 (≈ 86.9 µM) | 4 (≈ 21.7 µM) | 4 (≈ 21.7 µM) | 8 (≈ 43.4 µM) | 8 (≈ 43.4 µM) | 4 (≈ 21.7 µM) | 4 (≈ 21.7 µM)
4 | Cc1ccnc2c(O)c(C#N)ccc12 [Compound 3, 4-methyl-7-cyano-8-hydroxyquinoline] | 8 (≈ 43.4 µM) | 16 (≈ 86.9 µM) | 16 (≈ 86.9 µM) | 8 (≈ 43.4 µM) | 8 (≈ 43.4 µM) | 8 (≈ 43.4 µM) | 8 (≈ 43.4 µM) | 8 (≈ 43.4 µM) | 8 (≈ 43.4 µM)
5 | N#Cc1cc(C(F)(F)F)c2cccnc2c1O [Compound 2, 5-trifluoromethyl-7-cyano-8-hydroxyquinoline] | 32 (≈ 134 µM) | 64 (≈ 269 µM) | 64 (≈ 269 µM) | 4 (≈ 16.8 µM) | 4 (≈ 16.8 µM) | 32 (≈ 134 µM) | 64 (≈ 269 µM) | 8 (≈ 33.6 µM) | 16 (≈ 67.2 µM)

More lines, in order of falling MIC [1], values ahead:

Row | MIC [1] [µg/mL] | MIC [2] [µg/mL] | MIC [3] [µg/mL] | MIC [4] [µg/mL] | MIC [5] [µg/mL] | MIC [6] [µg/mL] | MIC [7] [µg/mL] | MIC [8] [µg/mL] | MIC [9] [µg/mL] | Structure (SMILES)
6 | 8 (≈ 39.1 µM) | 32 (≈ 156 µM) | 32 (≈ 156 µM) | 8 (≈ 39.1 µM) | 8 (≈ 39.1 µM) | 16 (≈ 78.2 µM) | 16 (≈ 78.2 µM) | 8 (≈ 39.1 µM) | 4 (≈ 19.5 µM) | N#Cc1cc(Cl)c2cccnc2c1O [Compound 9, 5-chloro-7-cyano-8-hydroxyquinoline]
7 | 8 (≈ 42.5 µM) | 16 (≈ 85 µM) | 16 (≈ 85 µM) | 16 (≈ 85 µM) | 16 (≈ 85 µM) | 8 (≈ 42.5 µM) | 8 (≈ 42.5 µM) | 16 (≈ 85 µM) | 4 (≈ 21.3 µM) | N#Cc1ccc2ccc(F)nc2c1O [Compound 4, 2-fluoro-7-cyano-8-hydroxyquinoline]
8 | 4 (≈ 15.2 µM) | 32 (≈ 122 µM) | 32 (≈ 122 µM) | 2 (≈ 7.6 µM) | 4 (≈ 15.2 µM) | 8 (≈ 30.4 µM) | 32 (≈ 122 µM) | 4 (≈ 15.2 µM) | 4 (≈ 15.2 µM) | Cc1ccnc2c(O)c(C#N)cc(Br)c12 [Compound 6, 4-methyl-5-bromo-7-cyano-8-hydroxyquinoline]
9 | 4 (≈ 16.7 µM) | > 64 | > 64 | 0.5 (≈ 2.09 µM) | 0.5 (≈ 2.09 µM) | 32 (≈ 134 µM) | 32 (≈ 134 µM) | 1 (≈ 4.18 µM) | 2 (≈ 8.37 µM) | N#Cc1c(Cl)c(Cl)c2cccnc2c1O [Compound 7, 5,6-dichloro-7-cyano-8-hydroxyquinoline]
10 | 4 (≈ 16.1 µM) | 32 (≈ 128 µM) | 32 (≈ 128 µM) | 4 (≈ 16.1 µM) | 4 (≈ 16.1 µM) | 8 (≈ 32.1 µM) | 16 (≈ 64.2 µM) | 4 (≈ 16.1 µM) | 4 (≈ 16.1 µM) | N#Cc1cc(Br)c2cccnc2c1O [Compound 1, 5-bromo-7-cyano-8-hydroxyquinoline]
